Read-outs that look alike come from different tables or passages of the source.
Legend:
ZAP-70 = molecular target: T1, ZAP-70 (Homo sapiens, UniProt P43403); test: ZAP-70 inhibition assay (standard coupled enzyme assay); assay type: biochemical; details: 100 μM ATP, 20 μM poly-4EY peptide, 30° C., 60 nM ZAP-70
T1 sequence (P43403 1-619): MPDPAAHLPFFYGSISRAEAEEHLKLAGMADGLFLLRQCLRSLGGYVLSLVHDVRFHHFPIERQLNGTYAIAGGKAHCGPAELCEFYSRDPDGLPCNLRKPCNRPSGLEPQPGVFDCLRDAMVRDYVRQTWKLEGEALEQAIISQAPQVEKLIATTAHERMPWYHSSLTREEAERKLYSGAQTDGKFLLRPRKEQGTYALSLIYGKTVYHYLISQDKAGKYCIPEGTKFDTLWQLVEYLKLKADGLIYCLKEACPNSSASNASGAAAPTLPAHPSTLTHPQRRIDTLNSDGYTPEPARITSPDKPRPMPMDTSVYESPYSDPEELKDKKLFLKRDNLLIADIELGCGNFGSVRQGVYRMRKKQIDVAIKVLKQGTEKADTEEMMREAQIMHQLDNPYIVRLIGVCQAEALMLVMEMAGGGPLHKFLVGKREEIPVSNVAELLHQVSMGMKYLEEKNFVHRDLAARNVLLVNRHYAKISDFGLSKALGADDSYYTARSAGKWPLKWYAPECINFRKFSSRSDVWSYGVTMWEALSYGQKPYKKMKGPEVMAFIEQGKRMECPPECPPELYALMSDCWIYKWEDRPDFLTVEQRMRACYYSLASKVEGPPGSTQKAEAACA
Protocol: Compounds were screened for their ability to inhibit ZAP-70 using a standard coupled enzyme assay (Fox et al., Protein Sci. 1998, 7, 2249). Assays were carried out in a mixture of 100 mM HEPES (pH 7.5), 10 mM MgCl2, 25 mM NaCl, 2 mM DTT and 3% DMSO. Final substrate concentrations in the assay were 100 μM ATP (Sigma Chemicals) and 20 μM peptide (poly-4EY, Sigma Chemicals). Assays were carried out at 30° C. and 60 nM ZAP-70. Final concentrations of the components of the coupled enzyme system were 2.5 mM phosphoenolpyruvate, 300 μM NADH, 30 μg/ml pyruvate kinase and 10 μg/ml lactate dehydrogenase.
An assay stock buffer solution was prepared containing all of the reagents listed above, with the exception of ZAP-70 and the test compound of interest of the present invention. 55 μl of the stock solution was placed in a 96 well plate followed by addition of 2 μl of DMSO stock containing serial dilutions of the test compound of the present invention (typically starting from a final concentration of 15 μM). The plate was preincubated for 10 minutes at 30° C. and the reaction initiated by addition of 10 μl of enzyme (final concentration 60 nM). Initial reaction rates were determined with a Molecular Devices SpectraMax Plus plate reader over a 15 minute time course. Ki data was calculated from non-linear regression analysis using the Prism software package (GraphPad Prism version 3.0a for Macintosh, GraphPad Software, San Diego Calif., USA).

SYK = SYK (Homo sapiens, UniProt P43405); test: SYK inhibition assay (standard coupled enzyme assay); assay type: biochemical
Protocol: Reactions were carried out in 100 mM HEPES (pH 7.5), 10 mM MgCl2, 25 mM NaCl, 1 mM DTT and 1.5% DMSO. Final substrate concentrations in the assay were 200 μM ATP (Sigma chemical Co.) and 4 μM poly Gly-Tyr peptide (Sigma Chemical Co.). Assays were carried out at 30° C. and 200 nM SYK. Final concentrations of the components of the coupled enzyme system were 2.5 mM phosphoenolpyruvate, 300 μM NADH, 30 μg/ml pyruvate kinase and 10 μg/ml lactate dehydrogenase.
An assay stock buffer solution was prepared containing all of the reagents listed above, with the exception of SYK, DTT, and the test compound of interest of the present invention. 56 μl of the test reaction was placed in a 96 well plate followed by the addition of 1 μl of 2 mM DMSO stock containing the test compound of the present invnetion (final compound concentration 30 μM).

[1] = coupled enzyme assay, 200 μM ATP, 4 μM poly Gly-Tyr peptide, 30° C., read-out: Ki (SYK)

SMILES	Ki (ZAP-70)	Ki (SYK; [1])	Ki (SYK)
Cc1cc(C)cc(Nc2nccc(-c3nc(COC(N)=O)cs3)n2)c1 [Example I-77]	≤ 5 µM	≤ 5 µM	
CC(=O)Nc1cccc(Nc2nccc(-c3ncc(C)s3)n2)c1 [Example I-78]	≤ 5 µM	≤ 5 µM	
Cc1cnc(-c2ccnc(Nc3ccc([N+](=O)[O-])cc3)n2)s1 [Example I-79]	≤ 5 µM	≤ 5 µM	
Cc1cnc(-c2ccnc(NC3CCCC3)n2)s1 [Example I-81]	≤ 5 µM	≤ 5 µM	
COc1cc(Nc2nccc(-c3ncc(CO)s3)n2)cc(C(F)(F)F)c1 [Example I-83]	≤ 5 µM	≤ 5 µM	
COc1cc(Nc2nccc(-c3nc(CO)cs3)n2)cc(C(F)(F)F)c1 [Example I-84]	≤ 5 µM		≤ 5 µM
CCCc1cnc(-c2ccnc(Nc3cc(C)cc(C)c3)n2)s1 [Example I-85]	≤ 5 µM	≤ 5 µM	
Cc1cc(C)cc(Nc2nccc(-c3ncc(CN4CCC[C@H]4CO)s3)n2)c1 [Example I-86]	≤ 5 µM	≤ 5 µM	
Cc1cc(C)cc(Nc2nccc(-c3ncc(CN(C)CCO)s3)n2)c1 [Example I-87]	≤ 5 µM	≤ 5 µM	
Cc1cc(C)cc(Nc2nccc(-c3ncc(CNCCCO)s3)n2)c1 [Example I-88]	≤ 5 µM	≤ 5 µM	
Cc1cnc(-c2ccnc(Nc3cc(N)cc(C(F)(F)F)c3)n2)s1 [Example I-89]	≤ 5 µM	≤ 5 µM	
Cc1cnc(-c2ccnc(Nc3cccc(C#N)c3)n2)s1 [Example I-90]	≤ 5 µM	≤ 5 µM	
Cc1cnc(-c2ccnc(Nc3ccc(N4CCOCC4)cc3)n2)s1 [Example I-91]	≤ 5 µM	≤ 5 µM	
Cc1cnc(-c2ccnc(Nc3ccc(N(C)C)cc3)n2)s1 [Example I-92]	≤ 5 µM	≤ 5 µM	
Cc1cc(C)cc(Nc2nccc(-c3ncc(N4CCNCC4)s3)n2)c1 [Example I-93]	≤ 5 µM	≤ 5 µM	
Cc1cc(C)cc(Nc2nccc(-c3ncc(N(C)C)s3)n2)c1 [Example I-94]	≤ 5 µM	≤ 5 µM	
Cc1cnc(-c2ccnc(Nc3ccccc3Oc3ccccc3)n2)s1 [Example I-95]	≤ 5 µM	≤ 5 µM	
Cc1cnc(-c2ccnc(Nc3ccc(F)cc3F)n2)s1 [Example I-97]	≤ 5 µM	≤ 5 µM	
Cc1cnc(-c2ccnc(Nc3c(C)cccc3C)n2)s1 [Example I-100]	≤ 5 µM	≤ 5 µM	

SMILES	Ki (ZAP-70)	Ki (SYK; [1])	Ki (SYK)
Cc1cnc(-c2ccnc(Nc3ccc(O)c(C)c3)n2)s1 [Example I-102]	≤ 5 µM	≤ 5 µM	
CCCc1ccccc1Nc1nccc(-c2ncc(C)s2)n1 [Example I-103]	≤ 5 µM	≤ 5 µM	
COC(=O)c1ccc(Nc2nccc(-c3ncc(C)s3)n2)cc1C [Example I-106]	≤ 5 µM	≤ 5 µM	
Cc1cnc(-c2ccnc(Nc3cc(O)cc(C(F)(F)F)c3)n2)s1 [Example I-109]	≤ 5 µM	≤ 5 µM	
Cc1cnc(-c2ccnc(Nc3ccc(NC(=O)OC(C)(C)C)cc3)n2)s1 [Example I-110]	≤ 5 µM	≤ 5 µM	
Cc1cnc(-c2ccnc(Nc3cccc(CO)c3)n2)s1 [Example I-111]	≤ 5 µM	≤ 5 µM	
Cc1cnc(-c2ccnc(Nc3ccc4sc(C)nc4c3)n2)s1 [Example I-114]	≤ 5 µM	≤ 5 µM	
CNC(=O)c1cnc(-c2ccnc(Nc3cc(C)cc(C)c3)n2)s1 [Example I-115]	≤ 5 µM	≤ 5 µM	
CC(=O)c1ccc(Nc2nccc(-c3ncc(C)s3)n2)cc1 [Example I-116]	≤ 5 µM	≤ 5 µM	
Cc1cc(C)cc(Nc2nccc(-c3ncc(C(=O)O)s3)n2)c1 [Example I-118]	≤ 5 µM	≤ 5 µM	
Cc1cc(C)cc(Nc2nccc(-c3nc(C)c(CCOC4CCCCO4)s3)n2)c1 (stereo not shown) [Example I-119]	≤ 5 µM	≤ 5 µM	
Cc1cnc(-c2ccnc(Nc3ccc(C(C)(C)C)cc3)n2)s1 [Example I-120]	≤ 5 µM	≤ 5 µM	
COC(=O)c1cc(Nc2nccc(-c3ncc(C)s3)n2)cc(C(=O)OC)c1 [Example I-121]	≤ 5 µM	≤ 5 µM	
COc1cc(Nc2nccc(-c3ncc(C)s3)n2)cc(OC)c1OC [Example I-122]	≤ 5 µM	≤ 5 µM	
Cc1cc(C)cc(Nc2nccc(-c3nc(C)c(CCO)s3)n2)c1 [Example I-123]	≤ 5 µM		≤ 5 µM
Cc1cc(C)cc(Nc2nccc(-c3ncc(CNc4cccnc4)s3)n2)c1 [Example I-124]	≤ 5 µM	≤ 5 µM	
Cc1cc(C)cc(Nc2nccc(-c3ncc(CNc4ccncc4)s3)n2)c1 [Example I-125]	≤ 5 µM	≤ 5 µM	
Cc1cnc(-c2ccnc(Nc3ccc4c(c3)OCCO4)n2)s1 [Example I-127]	≤ 5 µM	≤ 5 µM	
Cc1cnc(-c2ccnc(Nc3ccc4[nH]nnc4c3)n2)s1 [Example I-128]	≤ 5 µM	≤ 5 µM	

SMILES	Ki (ZAP-70)	Ki (SYK; [1])	Ki (SYK)
CSc1cccc(Nc2nccc(-c3ncc(C)s3)n2)c1 [Example I-130]	≤ 5 µM	≤ 5 µM	
CSc1ccc(Nc2nccc(-c3ncc(C)s3)n2)cc1 [Example I-131]	≤ 5 µM	≤ 5 µM	
Cc1cc(C)cc(Nc2nccc(-c3ncc(C(=O)N4CCNCC4)s3)n2)c1 [Example I-134]	≤ 5 µM	≤ 5 µM	
Cc1cnc(-c2ccnc(Nc3ccc4ncsc4c3)n2)s1 [Example I-135]	≤ 5 µM	≤ 5 µM	
Cc1cnc(-c2ccnc(Nc3ccc4[nH]nc(C)c4c3)n2)s1 [Example I-136]	≤ 5 µM	≤ 5 µM	
Cc1cc(C)cc(Nc2nccc(-c3ncc(C(=O)Nc4ccccc4)s3)n2)c1 [Example I-137]	≤ 5 µM	≤ 5 µM	
Cc1cc(C)cc(Nc2nccc(-c3ncc(C(=O)NCCN)s3)n2)c1 [Example I-138]	≤ 5 µM	≤ 5 µM	
Cc1cnc(-c2ccnc(Nc3ccc(N)cc3)n2)s1 [Example I-140]	≤ 5 µM	≤ 5 µM	
Cc1cc(C)cc(Nc2nccc(-c3ncc(CNc4ccccc4)s3)n2)c1 [Example I-141]	≤ 5 µM	≤ 5 µM	
Cc1cc(C)cc(Nc2nccc(-c3ncc(NCCN)s3)n2)c1 [Example I-142]	≤ 5 µM	≤ 5 µM	
COc1cc(Nc2nccc(-c3ncc(Cl)s3)n2)cc(OC)c1OC [Example I-143]	≤ 5 µM	≤ 5 µM	
OCc1cnc(-c2ccnc(Nc3cc(O)cc(C(F)(F)F)c3)n2)s1 [Example I-144]	≤ 5 µM	≤ 5 µM	
COc1cc(Nc2nccc(-c3ncc(N4CCNCC4)s3)n2)cc(OC)c1OC [Example I-145]	≤ 5 µM	≤ 5 µM	
OCc1csc(-c2ccnc(Nc3cc(O)cc(C(F)(F)F)c3)n2)n1 [Example I-146]	≤ 5 µM		≤ 5 µM
CC(=O)OCc1cnc(-c2ccnc(Nc3ccccc3OCc3ccccc3)n2)s1 [Example I-149]	≤ 5 µM	≤ 5 µM	
OCc1cnc(-c2ccnc(Nc3ccccc3OCc3ccccc3)n2)s1 [Example I-150]	≤ 5 µM	≤ 5 µM	
Cc1cnc(-c2ccnc(Nc3ccncc3)n2)s1 [Example I-152]	≤ 5 µM	≤ 5 µM	
Cc1cnc(-c2ccnc(Nc3ccc(NC(=O)CCNC(=O)OC(C)(C)C)cc3)n2)s1 [Example I-153]	≤ 5 µM	≤ 5 µM	

Reference: patent US7276502B2, “Thiazoles useful as inhibitors of protein kinases” (Vertex Pharmaceuticals Incorporated, priority 2003, dated 2007)
